pIC50: −log10 of the molar value.
Assays:
[1] = Cytotoxicity activity against human MCF7 cells assessed as growth inhibition measured after 48 hrs by MTT assay; assay type: functional, cell-based; conditions: MCF7, 48 h
[2] = Cytotoxicity activity against human A549 cells assessed as growth inhibition measured after 48 hrs by MTT assay; assay type: functional, cell-based; conditions: A549, 48 h

**Q.** With `CC(=O)O[C@H]1C(=O)[C@@]2(C)[C@H]([C@H](OC(=O)c3ccccc3)[C@]3(O)C[C@H](OC(=O)[C@H](O)[C@@H](NC(=O)c4ccccc4)c4ccccc4)C(C)=C1C3(C)C)[C@]1(OC(C)=O)CO[C@@H]1C[C@@H]2O` [PACLITAXEL] as the compound, how does the pIC50 [1] read?
**A.** Its pIC50 is 7.22.

**Q.** What about the pIC50 [2] of the same compound?
**A.** Its pIC50 is 7.52.
